ChEMBL document CHEMBL3132769, “Fragment growing to retain or alter the selectivity of anchored kinase hinge-binding fragments” (Medchemcomm, 2014)

What was measured:
[1] = system: Tyrosine-protein kinase ABL1 (Homo sapiens), P00519 [T315I]; assay: Inhibition of human truncated ABL T315I mutant expressed in baculovirus assessed as substrate phosphorylation using fluorescence-labelled peptides as substrate at 0.06 uM after 90 mins by microfluidic peptide phosphorylation assay
[2] = target: T1, Serine/threonine-protein kinase Nek2 (Homo sapiens) (UniProt P51955); assay: Inhibition of human full length NEK2 expressed in baculovirus assessed as substrate phosphorylation using fluorescence-labelled peptides as substrate at 0.06 uM after 90 mins by microfluidic peptide phosphorylation assay
T1 sequence (whole entry): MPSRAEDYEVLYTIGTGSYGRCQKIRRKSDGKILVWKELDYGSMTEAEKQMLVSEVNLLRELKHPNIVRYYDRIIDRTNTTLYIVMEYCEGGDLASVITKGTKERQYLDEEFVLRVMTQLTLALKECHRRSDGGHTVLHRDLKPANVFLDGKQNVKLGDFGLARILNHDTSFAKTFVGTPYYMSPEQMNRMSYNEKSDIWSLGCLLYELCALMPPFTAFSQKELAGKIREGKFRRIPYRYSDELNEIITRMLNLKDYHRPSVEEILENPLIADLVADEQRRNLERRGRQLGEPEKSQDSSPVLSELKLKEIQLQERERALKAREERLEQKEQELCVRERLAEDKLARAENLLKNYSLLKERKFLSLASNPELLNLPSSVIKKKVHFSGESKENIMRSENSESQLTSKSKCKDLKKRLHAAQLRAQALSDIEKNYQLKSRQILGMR

[3] = target: Casein kinase I isoform delta (Homo sapiens) (UniProt P48730); assay: Inhibition of human CK1D catalytic domain expressed in Escherichia coli cell assessed as substrate phosphorylation using fluorescence-labelled peptides as substrate at 0.2 uM after 90 mins by microfluidic peptide phosphorylation assay
[4] = system: Tyrosine-protein kinase ABL1 (Homo sapiens), P00519 [H396P]; assay: Inhibition of human truncated ABL H396P mutant expressed in baculovirus assessed as substrate phosphorylation using fluorescence-labelled peptides as substrate at 2 uM after 90 mins by microfluidic peptide phosphorylation assay
[5] = target: Fibroblast growth factor receptor 1 (Homo sapiens) (UniProt P11362); assay: Inhibition of human FGFR1 catalytic domain expressed in baculovirus assessed as substrate phosphorylation using fluorescence-labelled peptides as substrate at 2 uM after 90 mins by microfluidic peptide phosphorylation assay
[6] = target: Fibroblast growth factor receptor 2 (Homo sapiens) (UniProt P21802); assay: Inhibition of human FGFR2 catalytic domain expressed in baculovirus assessed as substrate phosphorylation using fluorescence-labelled peptides as substrate at 2 uM after 90 mins by microfluidic peptide phosphorylation assay
[7] = target: T2, Protein kinase C zeta type (Homo sapiens) (UniProt Q05513); assay: Inhibition of human full length PKC zeta expressed in baculovirus assessed as substrate phosphorylation using fluorescence-labelled peptides as substrate at 9 uM after 90 mins by microfluidic peptide phosphorylation assay
T2 sequence (whole entry): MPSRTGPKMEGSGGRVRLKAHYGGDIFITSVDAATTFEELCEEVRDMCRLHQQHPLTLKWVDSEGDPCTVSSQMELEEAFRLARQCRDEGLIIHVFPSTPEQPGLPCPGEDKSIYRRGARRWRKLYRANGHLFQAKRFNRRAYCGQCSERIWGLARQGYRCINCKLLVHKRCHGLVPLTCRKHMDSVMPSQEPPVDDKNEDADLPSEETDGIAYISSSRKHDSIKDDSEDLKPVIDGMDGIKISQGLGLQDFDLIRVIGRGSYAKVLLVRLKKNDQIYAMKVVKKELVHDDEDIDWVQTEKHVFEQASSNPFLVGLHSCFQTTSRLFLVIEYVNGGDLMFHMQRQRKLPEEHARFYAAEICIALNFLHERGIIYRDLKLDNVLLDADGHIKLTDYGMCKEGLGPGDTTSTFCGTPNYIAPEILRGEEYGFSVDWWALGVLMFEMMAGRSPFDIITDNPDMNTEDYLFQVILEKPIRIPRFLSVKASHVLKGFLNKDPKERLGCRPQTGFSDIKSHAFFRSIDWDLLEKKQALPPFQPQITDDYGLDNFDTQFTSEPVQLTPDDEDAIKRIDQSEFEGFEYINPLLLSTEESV

[8] = target: Tyrosine-protein kinase Fer (Homo sapiens) (UniProt P16591); assay: Inhibition of human FER catalytic domain expressed in baculovirus assessed as substrate phosphorylation using fluorescence-labelled peptides as substrate at 9 uM after 90 mins by microfluidic peptide phosphorylation assay
[9] = target: Calcium/calmodulin-dependent protein kinase type II subunit delta (Homo sapiens) (UniProt Q13557); assay: Inhibition of human full length CAMK2D expressed in baculovirus assessed as substrate phosphorylation using fluorescence-labelled peptides as substrate at 95 uM after 90 mins by microfluidic peptide phosphorylation assay
[10] = target: Mitogen-activated protein kinase 14 (Homo sapiens) (UniProt Q16539); assay: Inhibition of human truncated p38 alpha expressed in Escherichia coli cell assessed as substrate phosphorylation using fluorescence-labelled peptides as substrate at 1000 uM after 90 mins by microfluidic peptide phosphorylation assay
[11] = target: Rho-associated protein kinase 2 (Homo sapiens) (UniProt O75116); assay: Inhibition of human ROCK2 catalytic domain expressed in baculovirus assessed as substrate phosphorylation using fluorescence-labelled peptides as substrate at 1000 uM after 90 mins by microfluidic peptide phosphorylation assay
[12] = target: T3, Serine/threonine-protein kinase BRSK1 (Homo sapiens) (UniProt Q8TDC3); assay: Inhibition of human full length BRSK1 expressed in baculovirus assessed as substrate phosphorylation using fluorescence-labelled peptides as substrate at 420 uM after 90 mins by microfluidic peptide phosphorylation assay
T3 sequence (whole entry): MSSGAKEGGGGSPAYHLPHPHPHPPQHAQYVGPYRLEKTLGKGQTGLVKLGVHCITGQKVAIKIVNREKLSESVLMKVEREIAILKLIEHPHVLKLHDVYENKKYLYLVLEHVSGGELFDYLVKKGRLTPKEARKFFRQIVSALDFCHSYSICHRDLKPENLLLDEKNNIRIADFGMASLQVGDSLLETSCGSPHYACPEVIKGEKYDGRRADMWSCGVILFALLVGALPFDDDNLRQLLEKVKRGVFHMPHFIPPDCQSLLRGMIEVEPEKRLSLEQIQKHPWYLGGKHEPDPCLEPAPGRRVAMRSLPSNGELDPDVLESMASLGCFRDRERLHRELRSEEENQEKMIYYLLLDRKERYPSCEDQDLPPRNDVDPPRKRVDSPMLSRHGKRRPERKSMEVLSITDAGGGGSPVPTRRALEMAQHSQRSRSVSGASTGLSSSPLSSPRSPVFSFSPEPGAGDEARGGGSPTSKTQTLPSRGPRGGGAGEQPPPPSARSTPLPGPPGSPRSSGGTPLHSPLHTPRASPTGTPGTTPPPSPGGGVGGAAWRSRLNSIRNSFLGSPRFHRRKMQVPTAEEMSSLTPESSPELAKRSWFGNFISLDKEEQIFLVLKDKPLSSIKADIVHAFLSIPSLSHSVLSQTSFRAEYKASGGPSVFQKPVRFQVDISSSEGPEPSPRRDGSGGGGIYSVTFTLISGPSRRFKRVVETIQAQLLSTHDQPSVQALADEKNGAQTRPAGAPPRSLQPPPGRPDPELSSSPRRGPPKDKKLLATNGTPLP

Sequence of Casein kinase I isoform delta (Homo sapiens) (P48730 whole entry, looked up, the tested form may be a part, canonical isoform): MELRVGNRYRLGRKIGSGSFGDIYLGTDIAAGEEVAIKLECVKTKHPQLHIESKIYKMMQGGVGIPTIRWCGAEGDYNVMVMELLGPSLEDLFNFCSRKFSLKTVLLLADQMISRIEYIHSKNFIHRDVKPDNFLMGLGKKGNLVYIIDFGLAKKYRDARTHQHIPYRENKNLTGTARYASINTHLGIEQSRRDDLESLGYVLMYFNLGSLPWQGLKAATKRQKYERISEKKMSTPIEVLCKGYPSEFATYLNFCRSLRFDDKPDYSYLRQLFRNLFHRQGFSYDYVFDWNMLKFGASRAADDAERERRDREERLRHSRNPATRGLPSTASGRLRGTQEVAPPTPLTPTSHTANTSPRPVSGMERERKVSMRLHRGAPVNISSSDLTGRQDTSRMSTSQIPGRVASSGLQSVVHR
Sequence of Fibroblast growth factor receptor 1 (Homo sapiens) (P11362 22-822 limits assumed): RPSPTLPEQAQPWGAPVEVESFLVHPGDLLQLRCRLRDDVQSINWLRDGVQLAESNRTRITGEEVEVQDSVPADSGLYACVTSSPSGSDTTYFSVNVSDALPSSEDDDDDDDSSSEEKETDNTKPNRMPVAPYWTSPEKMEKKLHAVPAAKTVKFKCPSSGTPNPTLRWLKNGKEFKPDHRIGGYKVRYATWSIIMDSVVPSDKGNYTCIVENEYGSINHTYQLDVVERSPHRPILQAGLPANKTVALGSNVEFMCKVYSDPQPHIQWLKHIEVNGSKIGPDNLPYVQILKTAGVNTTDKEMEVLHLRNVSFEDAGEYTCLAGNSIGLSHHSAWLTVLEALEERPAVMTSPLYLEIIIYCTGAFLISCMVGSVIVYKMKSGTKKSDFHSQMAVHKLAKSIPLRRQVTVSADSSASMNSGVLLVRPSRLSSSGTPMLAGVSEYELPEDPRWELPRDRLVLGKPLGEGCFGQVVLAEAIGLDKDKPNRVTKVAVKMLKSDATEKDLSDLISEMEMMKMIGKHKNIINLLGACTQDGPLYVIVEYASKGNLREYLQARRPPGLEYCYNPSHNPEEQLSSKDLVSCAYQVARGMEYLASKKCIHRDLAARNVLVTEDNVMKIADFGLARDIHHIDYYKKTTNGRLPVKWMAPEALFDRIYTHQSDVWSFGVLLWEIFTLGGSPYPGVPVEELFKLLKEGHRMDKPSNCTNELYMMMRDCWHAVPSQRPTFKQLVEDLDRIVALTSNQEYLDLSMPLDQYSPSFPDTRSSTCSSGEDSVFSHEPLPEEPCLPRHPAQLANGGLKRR
Sequence of Rho-associated protein kinase 2 (Homo sapiens) (O75116 whole entry, looked up, the tested form may be a part): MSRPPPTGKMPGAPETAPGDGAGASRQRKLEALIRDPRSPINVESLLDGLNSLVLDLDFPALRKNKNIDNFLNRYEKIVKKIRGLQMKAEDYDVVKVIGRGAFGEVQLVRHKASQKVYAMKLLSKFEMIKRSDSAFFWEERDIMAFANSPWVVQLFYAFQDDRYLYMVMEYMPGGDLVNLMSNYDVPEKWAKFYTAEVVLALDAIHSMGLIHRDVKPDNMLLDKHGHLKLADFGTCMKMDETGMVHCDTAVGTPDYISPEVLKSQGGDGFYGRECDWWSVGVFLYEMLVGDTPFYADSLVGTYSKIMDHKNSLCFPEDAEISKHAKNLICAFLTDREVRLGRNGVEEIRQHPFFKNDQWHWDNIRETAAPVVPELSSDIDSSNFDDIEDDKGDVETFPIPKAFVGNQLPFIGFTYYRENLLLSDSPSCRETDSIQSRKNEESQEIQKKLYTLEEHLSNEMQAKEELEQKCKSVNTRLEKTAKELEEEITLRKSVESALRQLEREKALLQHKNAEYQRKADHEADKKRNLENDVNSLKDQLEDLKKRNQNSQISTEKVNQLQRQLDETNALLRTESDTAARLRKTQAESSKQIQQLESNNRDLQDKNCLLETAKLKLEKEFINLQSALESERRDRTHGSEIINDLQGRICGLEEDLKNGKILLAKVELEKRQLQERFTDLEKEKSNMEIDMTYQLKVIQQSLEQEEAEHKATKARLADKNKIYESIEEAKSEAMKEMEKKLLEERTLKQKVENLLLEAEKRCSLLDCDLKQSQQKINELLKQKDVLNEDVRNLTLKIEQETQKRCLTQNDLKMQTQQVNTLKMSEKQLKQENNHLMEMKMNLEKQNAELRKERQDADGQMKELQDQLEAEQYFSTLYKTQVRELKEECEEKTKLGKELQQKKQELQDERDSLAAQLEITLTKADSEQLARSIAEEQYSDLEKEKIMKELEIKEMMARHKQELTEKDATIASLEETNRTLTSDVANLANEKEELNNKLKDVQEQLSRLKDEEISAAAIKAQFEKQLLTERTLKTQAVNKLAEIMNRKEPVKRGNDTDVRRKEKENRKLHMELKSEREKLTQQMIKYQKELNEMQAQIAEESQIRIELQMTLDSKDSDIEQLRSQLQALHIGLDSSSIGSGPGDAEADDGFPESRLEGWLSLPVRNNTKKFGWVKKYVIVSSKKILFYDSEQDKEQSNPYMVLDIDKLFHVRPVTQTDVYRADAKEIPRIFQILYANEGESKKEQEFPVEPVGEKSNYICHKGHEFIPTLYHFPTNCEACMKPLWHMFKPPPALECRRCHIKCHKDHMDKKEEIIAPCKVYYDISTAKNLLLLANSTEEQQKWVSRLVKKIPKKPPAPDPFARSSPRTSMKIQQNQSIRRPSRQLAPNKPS
Sequence of Tyrosine-protein kinase Fer (Homo sapiens) (P16591 whole entry, looked up, the tested form may be a part): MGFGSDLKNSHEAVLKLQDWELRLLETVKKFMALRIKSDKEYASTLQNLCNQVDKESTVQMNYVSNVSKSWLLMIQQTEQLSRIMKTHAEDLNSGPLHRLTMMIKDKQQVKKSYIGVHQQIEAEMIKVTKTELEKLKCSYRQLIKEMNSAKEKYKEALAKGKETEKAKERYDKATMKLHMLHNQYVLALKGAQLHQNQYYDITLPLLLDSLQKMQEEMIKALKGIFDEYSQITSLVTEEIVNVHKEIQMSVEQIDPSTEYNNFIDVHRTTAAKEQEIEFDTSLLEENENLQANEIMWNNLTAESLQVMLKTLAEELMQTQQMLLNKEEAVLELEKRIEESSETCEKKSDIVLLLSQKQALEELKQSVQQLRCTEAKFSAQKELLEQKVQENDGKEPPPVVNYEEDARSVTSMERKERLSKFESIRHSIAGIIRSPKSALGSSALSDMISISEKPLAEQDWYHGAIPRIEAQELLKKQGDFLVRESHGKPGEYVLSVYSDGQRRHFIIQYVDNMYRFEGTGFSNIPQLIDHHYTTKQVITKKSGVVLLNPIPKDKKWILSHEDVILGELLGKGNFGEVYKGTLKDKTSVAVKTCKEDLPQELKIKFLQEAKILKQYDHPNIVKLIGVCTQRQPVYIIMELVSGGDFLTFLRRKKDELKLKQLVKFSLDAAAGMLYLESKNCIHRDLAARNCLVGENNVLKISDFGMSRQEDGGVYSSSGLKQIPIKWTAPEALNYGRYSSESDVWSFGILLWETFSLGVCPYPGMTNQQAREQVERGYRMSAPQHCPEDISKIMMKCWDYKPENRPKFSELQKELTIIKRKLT
Sequence of Fibroblast growth factor receptor 2 (Homo sapiens) (P21802 22-821 limits assumed): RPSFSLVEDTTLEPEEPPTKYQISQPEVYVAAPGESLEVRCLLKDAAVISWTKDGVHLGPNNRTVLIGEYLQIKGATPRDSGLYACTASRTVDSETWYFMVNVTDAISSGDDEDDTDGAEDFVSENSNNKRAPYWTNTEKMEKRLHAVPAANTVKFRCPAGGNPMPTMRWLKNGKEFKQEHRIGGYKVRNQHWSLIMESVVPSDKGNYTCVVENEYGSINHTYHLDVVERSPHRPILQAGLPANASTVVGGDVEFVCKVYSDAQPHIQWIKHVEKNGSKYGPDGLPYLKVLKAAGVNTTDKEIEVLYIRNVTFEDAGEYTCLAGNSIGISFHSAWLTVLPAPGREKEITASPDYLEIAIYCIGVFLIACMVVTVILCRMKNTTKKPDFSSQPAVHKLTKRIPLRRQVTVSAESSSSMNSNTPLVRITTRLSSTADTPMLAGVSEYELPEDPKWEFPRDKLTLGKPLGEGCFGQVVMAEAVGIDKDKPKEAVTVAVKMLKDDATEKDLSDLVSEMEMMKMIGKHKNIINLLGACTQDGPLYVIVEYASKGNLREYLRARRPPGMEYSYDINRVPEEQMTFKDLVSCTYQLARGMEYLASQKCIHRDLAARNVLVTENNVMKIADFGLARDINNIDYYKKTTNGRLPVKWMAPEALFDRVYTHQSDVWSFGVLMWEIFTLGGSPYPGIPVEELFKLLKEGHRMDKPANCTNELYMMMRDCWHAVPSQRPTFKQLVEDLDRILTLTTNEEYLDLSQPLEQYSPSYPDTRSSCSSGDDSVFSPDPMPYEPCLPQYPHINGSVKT
Sequence of Calcium/calmodulin-dependent protein kinase type II subunit delta (Homo sapiens) (Q13557 whole entry, the tested form may be a part): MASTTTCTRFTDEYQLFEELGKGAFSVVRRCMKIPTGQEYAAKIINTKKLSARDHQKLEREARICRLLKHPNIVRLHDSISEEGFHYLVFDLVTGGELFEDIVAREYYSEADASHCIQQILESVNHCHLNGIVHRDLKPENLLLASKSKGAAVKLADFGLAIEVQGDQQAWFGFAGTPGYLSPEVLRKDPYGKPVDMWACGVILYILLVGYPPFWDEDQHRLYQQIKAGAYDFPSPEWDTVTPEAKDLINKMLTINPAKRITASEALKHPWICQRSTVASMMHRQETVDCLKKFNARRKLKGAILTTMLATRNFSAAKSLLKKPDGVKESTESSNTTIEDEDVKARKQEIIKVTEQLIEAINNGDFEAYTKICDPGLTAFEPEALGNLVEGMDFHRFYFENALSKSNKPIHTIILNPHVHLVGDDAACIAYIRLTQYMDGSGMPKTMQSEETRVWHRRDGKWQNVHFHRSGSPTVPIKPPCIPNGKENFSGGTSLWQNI

## NC1(Cc2ccc(Cl)cc2)CCN(c2ncnc3[nH]ccc23)CC1
[1]
  inhibition: 0%
[2]
  inhibition: 0%

## Clc1ccc(C2(c3ccc(-c4ncnc5[nH]cnc45)cc3)CCNCC2)cc1
[3]
  inhibition: 8.5%

## NC1CCN(c2ncnc3[nH]ccc23)CC1
[4]
  inhibition: 2.5%
[5]
  inhibition: 1.5%
[6]
  inhibition: 1.5%

## NCC1CN(c2ncnc3[nH]c4cnccc4c23)CCO1 (configuration not stated)
[7]
  inhibition: 22%
[8]
  inhibition: 11%

## NCCc1ccc(-c2ncnc3[nH]cnc23)cc1
[9]
  inhibition: 45.5%

## c1cnc2[nH]ccc2c1
[10]
  inhibition: 0%
[11]
  inhibition: 99.5%

## c1nc(N2CCOCC2)c2nc[nH]c2n1
[12]
  inhibition: 51.5%
